Test results taken from US11186874B2, “ERK1 and ERK2 mutations that confer resistance to MAPK pathway inhibitors” (Dana-Farber Cancer Institute, Inc., priority 2014, dated 2021).

Tests used:
[1] = tested on: ERK2; assay: IP kinase assay, V5-tagged ERK2, phosphorylation of recombinant ELK-1 peptide; assay type: biochemical, human; conditions: for ERK kinase activity of ERK inhibitor resistance alleles in the presence of inhibitor: ERK2 resistance alleles, FIG. 3B, FIG. 10B
Description: (§1) Phosphorylation of ELK-1 (at serine 383) was measured by Western blotting.
(§2) ERK1 and ERK2 open constructs were transferred into DEST40 (C-terminal V5 tag) vector (Invitrogen) using LR clonase II. A375 cells were transiently transfected with V5-tagged ERK1 or ERK2 constructs using X-tremeGENE HP (Roche). […] Reactions were stopped with the addition on 3× SDS loading buffer. Samples were boiled and supernatant was run on SDS-PAGE gel for western blotting.

[2] = tested on: ERK1/2; assay: Western blotting of ERK signaling in A375 cells expressing ERK1/2 alleles; assay type: cell-based; conditions: for ERK signaling (RSK phosphorylation, DUSP6, cyclin D1) in the presence of ERK inhibitor: ten ERK inhibitor resistance alleles, DOX, 24 h
Description: Cells were exposed to DOX with or without MAPK inhibitor at the same doses used in the screen for 24 h, then harvested in RIPA buffer, and run on SDS-PAGE. Proteins were transferred to PVDF membranes and analyzed using the following antibodies phosphoERK1/2, ERK1/2, phosphoELK-1 S383 (Santa Cruz), phosphoRSK (S380), RSK, tubulin, DUSP6 (Cell Signaling), cyclin D1 (Thermo Scientific), and V5 (Abcam). Relative expression was calculated by comparing densities of bands of phoshoELK-1 to total ERK (or V5). Values were normalized to untreated WT, which was set at 1.

[3] = tested on: A375 cells; assay: MTS growth assay of A375 cells expressing DOX-inducible ERK1/2 alleles in the presence of MAPK pathway inhibitors; assay type: cell-based
From the text: To verify their resistance effects, we engineered the relevant mutations for highly mutated alleles or for low frequency alleles that were analogous between ERK1 and ERK2 within the coding sequence of ERK1 or ERK2 by site directed mutagenesis in the doxycycline-inducible vector. […] Here, we defined validation as a >4-fold increase in cell growth conferred by DOX-induced mutant ERK expression compared to control cells cultured without DOX (FIG. 2A, Table 4, FIG. 8G).
A375, WM266.4, or SKmel19 cells were plated in 96-well plates, with six replicates for each drug. Drugs were added the next day with or without DOX. Cell growth was analyzed 72-96 hours later by MTS assay (Promega). The inhibitor concentrations were the same as the screen. […] Growth was normalized to DMSO, NO-DOX controls, and graphed as percent growth. Heatmaps were created from growth assays using GENE-E (Available on the World Wide Web at broadinstitute.org/cancer/software/GENE-E/download.html). For some growth assays, a half-log dose response curve was generated to determine sensitivity. The concentration of DMSO was 0.1%.

[4] = target: T1, ERK2 (Homo sapiens, UniProt P28482); assay: IP kinase assay, V5-tagged ERK2, phosphorylation of recombinant ELK-1 peptide; assay type: biochemical; conditions: wild type ERK2; VX-11e 0.1 μM added during the kinase assay
T1 construct: made in house; host or cells: A375 cells, transient transfection; captured on V5-agarose beads
Description: as §1, §2

[5] = target: T2, ERK1 (Homo sapiens, UniProt P27361, Y148H); assay: IP kinase assay, V5-tagged ERK1, phosphorylation of recombinant ELK-1 peptide; assay type: biochemical; conditions: ERK1^Y148; trametinib 3 nM, 4 h
T2 construct: made in house; host or cells: A375 cells, transient transfection; captured on V5-agarose beads

[6] = tested on: ERK1; assay: as above; assay type: biochemical, human; conditions: ERK1 alleles; trametinib 3 nM, 4 h, added to cells prior to harvest

T2 sequence (P27361 2-379 Y148H): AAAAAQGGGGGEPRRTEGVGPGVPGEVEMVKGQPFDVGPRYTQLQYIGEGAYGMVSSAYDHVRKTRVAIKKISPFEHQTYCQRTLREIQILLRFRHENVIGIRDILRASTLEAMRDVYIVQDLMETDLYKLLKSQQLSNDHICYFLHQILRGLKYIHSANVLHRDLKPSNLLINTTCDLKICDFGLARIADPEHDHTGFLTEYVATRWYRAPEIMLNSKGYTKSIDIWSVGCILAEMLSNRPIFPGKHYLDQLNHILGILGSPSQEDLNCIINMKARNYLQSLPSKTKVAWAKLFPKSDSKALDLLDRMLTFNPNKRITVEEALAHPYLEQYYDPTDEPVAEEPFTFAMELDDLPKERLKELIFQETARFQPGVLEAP
T1 sequence (P28482 2-360): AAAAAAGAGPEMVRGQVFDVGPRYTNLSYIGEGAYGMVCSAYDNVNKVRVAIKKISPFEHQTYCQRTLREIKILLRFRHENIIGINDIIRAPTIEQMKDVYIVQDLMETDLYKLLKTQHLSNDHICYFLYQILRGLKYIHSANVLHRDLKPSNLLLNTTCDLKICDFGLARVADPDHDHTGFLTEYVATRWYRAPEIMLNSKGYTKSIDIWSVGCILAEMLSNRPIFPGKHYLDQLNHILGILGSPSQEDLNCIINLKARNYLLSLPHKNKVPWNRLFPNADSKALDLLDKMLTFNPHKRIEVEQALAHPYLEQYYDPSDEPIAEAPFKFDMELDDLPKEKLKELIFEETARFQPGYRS

Structure (SMILES)	ERK kinase activity of ERK inhibitor resistance alleles in the presence of inhibitor [1]	phosphorylation of ERK2-resistant alleles ([2]; A375, ERK inhibitor resistant ERK2 alleles)	ERK signaling (RSK phosphorylation, DUSP6, cyclin D1) in the presence of ERK inhibitor ([2]; A375)	phosphorylation of wild type ERK1/2 ([2]; A375, wild type ERK1/2)	growth advantage ([3]; ERK1^Y53H, 0.5 μM SCH772984) [fold]	increase in cell growth ([3]; ERK1^Y53H, 1 μM SCH772984) [fold]	increase in cell growth with allele expression ([3]; selected VX-11e-resistant ERK1 and ERK2 alleles, SCH772984)	ELK-1 phosphorylation (serine 383) induced by wild type ERK2 [4]	ERK phosphorylation ([2]; any context examined)	increase in cell growth conferred by DOX-induced mutant ERK expression compared to control cells cultured without DOX ([3]; 16 validated of 20 candidate ERK1/2 resistance alleles, VX-11e 2 μM) [fold]	effect on growth in the presence of the ERK inhibitor ([3]; kinase-dead ERK1 and ERK2 and GFP, VX-11e 2 μM)	growth advantage in the presence of the ERK inhibitor ([3]; wild-type ERK1 and ERK2, VX-11e 2 μM) [fold]	residual kinase activity of common docking domain mutants compared to other alleles ([1]; ERK2^Y131, ERK2^D321G, ERK2^E322K, trametinib 3 nM, 4 h)	ERK kinase activity (ELK-1 peptide phosphorylation) of RAF/MEK inhibitor resistant alleles in the presence of MEK inhibitor ([1]; ERK2 alleles, trametinib 3 nM, 4 h, added to cells prior to harvest)	residual kinase activity of common docking domain mutants compared to other alleles [5]	ERK kinase activity (ELK-1 peptide phosphorylation) of RAF/MEK inhibitor resistant alleles in the presence of MEK inhibitor [6]
O=C(Nc1ccc2[nH]nc(-c3ccncc3)c2c1)[C@@H]1CCN(CC(=O)N2CCN(c3ccc(-c4ncccn4)cc3)CC2)C1 [SCH772984]	maintained ERK kinase activity	no effect	maintained	decreased	5	2.5	over 4 fold	–	–	–	–	–	–	–	–	–
Cc1cnc(Nc2ccc(F)cc2Cl)nc1-c1c[nH]c(C(=O)N[C@H](CO)c2cccc(Cl)c2)c1 [VX-11e]	maintained ERK kinase activity	–	sustained ERK signaling	–	–	–	–	completely blocked	no effect	> 4	no effect	1.5	–	–	–	–
CC(=O)Nc1cccc(-n2c(=O)n(C3CC3)c(=O)c3c(Nc4ccc(I)cc4F)n(C)c(=O)c(C)c32)c1 [trametinib]	–	–	–	–	–	–	–	–	–	–	–	–	diminished residual kinase activity	maintained ERK kinase activity	diminished residual kinase activity	maintained ERK kinase activity
